In US9302999B2, “Substituted triazoles as herbicides” (E. I. DU PONT DE NEMOURS AND COMPANY, priority 2012, dated 2016):

Key:
Format in all cases: in vivo
wild oat (Avena fatua) = test: Test C pre-/postemergence: wild oat
Source text: (§1) Seeds of plant species selected from blackgrass (Alopecurus myosuroides), bromegrass, downy (downy bromegrass, Bromus tectorum), foxtail, green (green foxtail, Setaria viridis), ryegrass, Italian (Italian ryegrass, Lolium multiflorum), winter wheat (Triticum aestivum), wild oat (Avena fatua), galium (catchweed bedstraw, Galium aparine), bermudagrass (Cynodon dactylon), surinam grass (Brachiaria decumbens), cocklebur (common cocklebur, Xanthium strumarium), corn (Zea mays), large crabgrass (Digitaria sanguinalis), woolly cupgrass (Eriochloa villosa), foxtail, giant (giant foxtail, Setaria faberii), goosegrass (Eleusine indica), johnsongrass (Sorghum halepense), kochia (Kochia scoparia), lambsquarters (Chenopodium album), morningglory (Ipomoea coccinea), nightshade (eastern black nightshade, Solanum ptycanthum), nutsedge, yellow (yellow nutsedge, Cyperus esculentus), pigweed (Amaranthus retroflexus), ragweed (common ragweed, Ambrosia elation), soybean (Glycine max), common (oilseed) sunflower (Helianthus annuus), Russian thistle (Salsola kali) and velvetleaf (Abutilon theophrasti) were planted into a blend of loam soil and sand and treated preemergence with test chemicals formulated in a non-phytotoxic solvent mixture which included a surfactant.
(§2) At the same time, plants selected from these crop and weed species and also barley (winter barley, Hordeum vulgare), canarygrass (Phalaris minor), chickweed (common chickweed, Stellaria media) windgrass (Apera spica-venti) and deadnettle (henbit deadnettle, Lamium amplexicaule) were planted in pots containing Redi-Earth® planting medium (Scotts Company, 14111 Scottslawn Road, Marysville, Ohio 43041) comprising spaghnum peat moss, vermiculite, wetting agent and starter nutrients and treated with postemergence applications of test chemicals formulated in the same manner. Plants ranged in height from 2 to 18 cm (1- to 4-leaf stage) for postemergence treatments.
(§3) Treated plants and controls were maintained in a greenhouse for 13 to 15 days, after which time all species were compared to controls and visually evaluated. Plant response ratings, summarized in Table C, are based on a scale of 0 to 100 where 0 is no effect and 100 is complete control. A dash (-) response means no test result.

corn (Zea mays) = test: Test C pre-/postemergence: corn
Source text: as §1, §2, §3

[1] = test system: lambsquarters (Chenopodium album); test: Test C pre-/postemergence: lambsquarters
Source text: as §1, §2, §3

[2] = test system: velvetleaf (Abutilon theophrasti); test: Test C pre-/postemergence: velvetleaf
Source text: as §1, §2, §3

[3] = test system: foxtail, giant (giant foxtail, Setaria faberii); test: Test C pre-/postemergence: foxtail, giant
Source text: as §1, §2, §3

soybean (Glycine max) = test: Test C pre-/postemergence: soybean
Source text: as §1, §2, §3

[4] = test system: surinam grass (Brachiaria decumbens); test: Test C pre-/postemergence: surinam grass
Source text: as §1, §2, §3

[5] = test system: deadnettle (henbit deadnettle, Lamium amplexicaule); test: Test C postemergence: deadnettle
Source text: as §2, §3

[6] = test system: woolly cupgrass (Eriochloa villosa); test: Test C pre-/postemergence: woolly cupgrass
Source text: as §1, §2, §3

[7] = test system: bermudagrass (Cynodon dactylon); test: Test C pre-/postemergence: bermudagrass
Source text: as §1, §2, §3

[8] = Postemergence, 31 g ai/ha, scale 0 to 100 (0 no effect, 100 complete control)
[9] = Postemergence, 62 g ai/ha, scale 0 to 100 (0 no effect, 100 complete control)
[10] = Postemergence, 125 g ai/ha, scale 0 to 100, 0 no effect, 100 complete control
[11] = Postemergence, 250 g ai/ha, scale 0 to 100
[12] = Preemergence, 31 g ai/ha, scale of 0 to 100, 0 is no effect, 100 is complete control
[13] = Preemergence, 62 g ai/ha, scale of 0 to 100, 0 is no effect, 100 is complete control
[14] = Preemergence, 125 g ai/ha, scale 0 to 100, 0 no effect, 100 complete control
[15] = Preemergence, 250 g ai/ha, scale 0 to 100, 0 no effect, 100 complete control
[16] = Preemergence, 62 g ai/ha, scale 0 to 100, 0 no effect, 100 complete control
[17] = 31 g ai/ha, scale 0 to 100 (0 no effect, 100 complete control)
[18] = 62 g ai/ha, scale 0 to 100 (0 no effect, 100 complete control)
[19] = 125 g ai/ha, scale 0 to 100, 0 no effect, 100 complete control
[20] = Postemergence, 16 g ai/ha, scale 0 to 100, 0 no effect, 100 complete control
[21] = Preemergence, 16 g ai/ha, scale 0 (no effect) to 100 (complete control)

FC(F)(F)COc1nn(-c2ccc(C(F)(F)F)cc2)nc1Cc1ccnc(C(F)(F)F)c1 [Compound 14, 4-[[5-(2,2,2-trifluoroethoxy)-2-[4-(trifluoromethyl)phenyl]-2H-1,2,3-triazol-4-yl]methyl]-2-(trifluoromethyl)pyridine]
Plant response rating, Oat, Wild (wild oat (Avena fatua); [8]): 25
Plant response rating, Oat, Wild (wild oat (Avena fatua); [9]): 45
Plant response rating, Oat, Wild (wild oat (Avena fatua); [10]): 50
Plant response rating, Oat, Wild (wild oat (Avena fatua); [11]): 60
Plant response rating, Oat, Wild (wild oat (Avena fatua); [12]): 20
Plant response rating, Oat, Wild (wild oat (Avena fatua); [13]): 40
Plant response rating, Oat, Wild (wild oat (Avena fatua); [14]): 70
Plant response rating, Oat, Wild (wild oat (Avena fatua); [15]): 90
Plant response rating, Corn (corn (Zea mays); [8]): 5
Plant response rating, Corn (corn (Zea mays); [9]): 10
Plant response rating, Corn (corn (Zea mays); [10]): 15
Plant response rating, Corn (corn (Zea mays); [11]): 15
Plant response rating, Corn (corn (Zea mays); [12]): 0
Plant response rating, Corn (corn (Zea mays); [16]): 0
Plant response rating, Corn (corn (Zea mays); [14]): 5
Plant response rating, Corn (corn (Zea mays); [15]): 10
Plant response rating, Lambsquarters [1, 8]: 100
Plant response rating, Lambsquarters [1, 9]: 100
Plant response rating, Lambsquarters [1, 10]: 100
Plant response rating, Lambsquarters [1, 11]: 100
Plant response rating, Lambsquarters [1, 12]: 95
Plant response rating, Lambsquarters [1, 13]: 100
Plant response rating, Lambsquarters [1, 14]: 100
Plant response rating, Lambsquarters [1, 15]: 100
Plant response rating, Velvetleaf [2, 8]: 75
Plant response rating, Velvetleaf [2, 9]: 80
Plant response rating, Velvetleaf [2, 10]: 85
Plant response rating, Velvetleaf [2, 11]: 90
Plant response rating, Velvetleaf [2, 12]: 10
Plant response rating, Velvetleaf [2, 13]: 10
Plant response rating, Velvetleaf [2, 14]: 70
Plant response rating, Velvetleaf [2, 15]: 75
Plant response rating, Foxtail, Giant [3, 8]: 10
Plant response rating, Foxtail, Giant [3, 9]: 15
Plant response rating, Foxtail, Giant [3, 10]: 30
Plant response rating, Foxtail, Giant [3, 11]: 35
Plant response rating, Foxtail, Giant [3, 12]: 95
Plant response rating, Foxtail, Giant [3, 13]: 98
Plant response rating, Foxtail, Giant [3, 14]: 100
Plant response rating, Foxtail, Giant [3, 15]: 100
Plant response rating, Soybean (soybean (Glycine max); [8]): 25
Plant response rating, Soybean (soybean (Glycine max); [9]): 25
Plant response rating, Soybean (soybean (Glycine max); [10]): 30
Plant response rating, Soybean (soybean (Glycine max); [11]): 35
Plant response rating, Soybean (soybean (Glycine max); [12]): 0
Plant response rating, Soybean (soybean (Glycine max); [13]): 0
Plant response rating, Soybean (soybean (Glycine max); [14]): 0
Plant response rating, Soybean (soybean (Glycine max); [15]): 0
Plant response rating, Surinam Grass [4, 8]: 5
Plant response rating, Surinam Grass [4, 9]: 5
Plant response rating, Surinam Grass [4, 10]: 30
Plant response rating, Surinam Grass [4, 11]: 55
Plant response rating, Surinam Grass [4, 12]: 20
Plant response rating, Surinam Grass [4, 13]: 45
Plant response rating, Surinam Grass [4, 14]: 60
Plant response rating, Surinam Grass [4, 15]: 85
Plant response rating, Deadnettle [5, 17]: 98
Plant response rating, Deadnettle [5, 18]: 98
Plant response rating, Deadnettle [5, 19]: 100
Plant response rating, Deadnettle ([5]; 250 g ai/ha, scale 0 to 100): 100
Plant response rating, Cupgrass, Woolly [6, 8]: 5
Plant response rating, Cupgrass, Woolly [6, 9]: 5
Plant response rating, Cupgrass, Woolly [6, 10]: 35
Plant response rating, Cupgrass, Woolly [6, 11]: 65
Plant response rating, Cupgrass, Woolly [6, 12]: 5
Plant response rating, Cupgrass, Woolly [6, 13]: 75
Plant response rating, Cupgrass, Woolly [6, 14]: 75
Plant response rating, Cupgrass, Woolly [6, 15]: 80
Plant response rating, Bermudagrass [7, 8]: 0
Plant response rating, Bermudagrass [7, 9]: 15
Plant response rating, Bermudagrass [7, 10]: 55
Plant response rating, Bermudagrass [7, 11]: 65
Plant response rating, Bermudagrass [7, 12]: 98
Plant response rating, Bermudagrass [7, 16]: 100
Plant response rating, Bermudagrass [7, 14]: 100
Plant response rating, Bermudagrass [7, 15]: 100

COc1nn(-c2ccc(C(F)(F)F)cc2)nc1Cc1ccnc(C(F)(F)F)c1 [Compound 15, 4-[[5-methoxy-2-[4-(trifluoromethyl)phenyl]-2H-1,2,3-triazol-4-yl]methyl]-2-(trifluoromethyl)pyridine]
Plant response rating, Oat, Wild (wild oat (Avena fatua); [20]): 40
Plant response rating, Oat, Wild (wild oat (Avena fatua); [8]): 45
Plant response rating, Oat, Wild (wild oat (Avena fatua); [9]): 55
Plant response rating, Oat, Wild (wild oat (Avena fatua); [10]): 60
Plant response rating, Oat, Wild (wild oat (Avena fatua); [21]): 35
Plant response rating, Oat, Wild (wild oat (Avena fatua); [12]): 40
Plant response rating, Oat, Wild (wild oat (Avena fatua); [13]): 70
Plant response rating, Oat, Wild (wild oat (Avena fatua); [14]): 70
Plant response rating, Corn (corn (Zea mays); [20]): 0
Plant response rating, Corn (corn (Zea mays); [8]): 5
Plant response rating, Corn (corn (Zea mays); [9]): 15
Plant response rating, Corn (corn (Zea mays); [10]): 35
Plant response rating, Corn (corn (Zea mays); [21]): 0
Plant response rating, Corn (corn (Zea mays); [12]): 0
Plant response rating, Corn (corn (Zea mays); [16]): 0
Plant response rating, Corn (corn (Zea mays); [14]): 10
Plant response rating, Lambsquarters [1, 20]: 100
Plant response rating, Lambsquarters [1, 8]: 100
Plant response rating, Lambsquarters [1, 9]: 100
Plant response rating, Lambsquarters [1, 10]: 100
Plant response rating, Lambsquarters [1, 21]: 95
Plant response rating, Lambsquarters [1, 12]: 100
Plant response rating, Lambsquarters [1, 13]: 100
Plant response rating, Lambsquarters [1, 14]: 100
Plant response rating, Velvetleaf [2, 20]: 60
Plant response rating, Velvetleaf [2, 8]: 60
Plant response rating, Velvetleaf [2, 9]: 60
Plant response rating, Velvetleaf [2, 10]: 90
Plant response rating, Velvetleaf [2, 21]: 0
Plant response rating, Velvetleaf [2, 12]: 0
Plant response rating, Velvetleaf [2, 13]: 20
Plant response rating, Velvetleaf [2, 14]: 80
Plant response rating, Foxtail, Giant [3, 20]: 5
Plant response rating, Foxtail, Giant [3, 8]: 10
Plant response rating, Foxtail, Giant [3, 9]: 10
Plant response rating, Foxtail, Giant [3, 10]: 75
Plant response rating, Foxtail, Giant [3, 21]: 95
Plant response rating, Foxtail, Giant [3, 12]: 95
Plant response rating, Foxtail, Giant [3, 13]: 100
Plant response rating, Foxtail, Giant [3, 14]: 100
Plant response rating, Soybean (soybean (Glycine max); [20]): 10
Plant response rating, Soybean (soybean (Glycine max); [8]): 10
Plant response rating, Soybean (soybean (Glycine max); [9]): 35
Plant response rating, Soybean (soybean (Glycine max); [10]): 45
Plant response rating, Soybean (soybean (Glycine max); [21]): 0
Plant response rating, Soybean (soybean (Glycine max); [12]): 0
Plant response rating, Soybean (soybean (Glycine max); [13]): 0
Plant response rating, Soybean (soybean (Glycine max); [14]): 25
Plant response rating, Surinam Grass [4, 20]: 5
Plant response rating, Surinam Grass [4, 8]: 10
Plant response rating, Surinam Grass [4, 9]: 15
Plant response rating, Surinam Grass [4, 10]: 50
Plant response rating, Surinam Grass [4, 21]: 10
Plant response rating, Surinam Grass [4, 12]: 40
Plant response rating, Surinam Grass [4, 13]: 55
Plant response rating, Surinam Grass [4, 14]: 90
Plant response rating, Deadnettle ([5]; 16 g ai/ha, scale 0 to 100, 0 no effect, 100 complete control): 90
Plant response rating, Deadnettle [5, 17]: 100
Plant response rating, Deadnettle [5, 18]: 100
Plant response rating, Deadnettle [5, 19]: 100
Plant response rating, Cupgrass, Woolly [6, 20]: 5
Plant response rating, Cupgrass, Woolly [6, 8]: 5
Plant response rating, Cupgrass, Woolly [6, 9]: 5
Plant response rating, Cupgrass, Woolly [6, 10]: 75
Plant response rating, Cupgrass, Woolly [6, 21]: 5
Plant response rating, Cupgrass, Woolly [6, 12]: 45
Plant response rating, Cupgrass, Woolly [6, 13]: 85
Plant response rating, Cupgrass, Woolly [6, 14]: 95
Plant response rating, Bermudagrass [7, 20]: 5
Plant response rating, Bermudagrass [7, 8]: 5
Plant response rating, Bermudagrass [7, 9]: 15
Plant response rating, Bermudagrass [7, 10]: 35
Plant response rating, Bermudagrass [7, 21]: 100
Plant response rating, Bermudagrass [7, 12]: 100
Plant response rating, Bermudagrass [7, 16]: 100
Plant response rating, Bermudagrass [7, 14]: 100
